In patent US20090142735A1, “Bacterial intraoral disease treatment composition, washing treatment solution, hemostatic treatment solution, and bacterial intraoral disease treatment method” (priority 2005, published 2009):

Experiment: Test Example 1: penetrability of the base (migration of food red from the drug application seat)
Assay type: physicochemical
Conditions: 100% humidity, root embedded in gypsum block
From the text: FIG. 7 depicts a cross-sectional view of a sample 50 according to the present test example. First, the mandibular first premolar affected with apical periodontitis was drilled with a #70 […] to enlarge the root canal and further the root canal 51 was filled using a gutta-percha point and a sealer, and by pressing them sideways. […] At the bottom of this drug application seat 52, two small pieces 53 (about 1.0 mm in diameter) of each base shown in Table 1 added with food red were loaded. Furthermore, cotton ball (not shown) was placed so as to cover these small pieces 53, and “Caviton (registered trade mark)” (G C Co., Ltd.) was layered over this cotton ball to form the covering layer 54, thereby preparing the sample 50. After the root portion of each sample 50 was embedded in an ordinary gypsum block 55, it was stored under 100% humidity. Migration distances of food red from the drug application seat for storing times of 24 hours and 48 hours were measured to assess the penetrability of the base contained in each sample. In this case, the migration distance was determined as the longest distance in the direction of depth (in the direction of the arrow D in FIG. 7) of the area reached by coloring due to food red when the sample 50 was observed from outside.

| Migration distance of food red from drug application seat (depth direction) (storing time 24 hours) [mm] | Migration distance of food red from drug application seat (depth direction) (storing time 48 hours) [mm] | SMILES |
| --- | --- | --- |
| 5.0 | 7.0 | OCC(O)CO [Sample 6, Glycerin] |
| 2.0 | 3.5 | CC(O)CO (stereo not drawn) [Sample 2, Propylene glycol] |

| SMILES | Migration distance of food red from drug application seat (depth direction) (storing time 24 hours) [mm] | Migration distance of food red from drug application seat (depth direction) (storing time 48 hours) [mm] |
| --- | --- | --- |
| O [Sample 1, Water] | 2.0 | 4.0 |
